These are literature values, as cited in patent publication US20250312270A1, “READY-TO-INFUSE PHENYLEPHRINE COMPOSITIONS” (AMNEAL EU, LIMITED, priority 2023, published 2025).

This data set has as its system blood pressure. The following applies: doses above 6 mcg/kg/min, intravenous continuous infusion, adult patients with septic or other vasodilatory shock.

As to `CNC[C@H](O)c1cccc(O)c1` [phenylephrine, (R)-3-Hydroxy-α-(methylaminomethyl)benzyl alcohol], the “incremental increase in blood pressure” value is “do not show significant incremental increase in blood pressure”.
